Assay results taken from PubChem BioAssay (NCI).
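Each compound was tested at five concentrations against cells in 96-well plates for 48 hours. Here, GI50 denotes the concentration required for 50% inhibition of growth. Definition used: TGI = concentration required for complete inhibition of growth.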

Key:
Test in all cases: DTP human tumour cell line panel, 48 h; in the data active = GI50 below about 0.43 µM; inactive = the rest
COLO 205 colon = tested on: COLO 205 colon
EKVX NSCLC = tested on: EKVX NSCLC
HCT-15 colon = tested on: HCT-15 colon
MCF7 breast = tested on: MCF7 breast
NCI/ADR-RES ovarian = tested on: NCI/ADR-RES ovarian
SF-295 CNS = tested on: SF-295 CNS
SK-MEL-28 melanoma = tested on: SK-MEL-28 melanoma
SK-MEL-5 melanoma = tested on: SK-MEL-5 melanoma
TK-10 renal = tested on: TK-10 renal
SR leukemia = tested on: SR leukemia

C=C1N(C=O)C(C)(C)N(O)C1(C)C
> 100 µM: TGI (COLO 205 colon) | TGI (EKVX NSCLC) | TGI (HCT-15 colon) | TGI (MCF7 breast) | TGI (NCI/ADR-RES ovarian) | TGI (SF-295 CNS) | TGI (SK-MEL-28 melanoma) | TGI (SK-MEL-5 melanoma) | TGI (TK-10 renal)

NCCCCNCCCNC(=O)c1nc(-c2nc(CCN)sc2Cl)sc1Cl
> 100 µM: TGI (COLO 205 colon) | TGI (EKVX NSCLC) | TGI (HCT-15 colon) | TGI (SF-295 CNS) | TGI (SK-MEL-28 melanoma) | TGI (SK-MEL-5 melanoma) | TGI (SR leukemia) | TGI (TK-10 renal)

COc1ccc(OC2OC(CO)C(OCc3ccccc3)C(OCc3ccccc3)C2OCc2ccccc2)cc1 (centres undefined)
> 100 µM: TGI (COLO 205 colon) | TGI (EKVX NSCLC) | TGI (MCF7 breast) | TGI (NCI/ADR-RES ovarian) | TGI (SF-295 CNS) | TGI (SK-MEL-28 melanoma) | TGI (SK-MEL-5 melanoma) | TGI (SR leukemia) | TGI (TK-10 renal)

COc1cc(-c2n/c(=C\c3c(O)[nH]c4ccc(Cl)cc34)cc3c2=Nc2ccccc2-3)ccc1F
10.8 µM: TGI (SK-MEL-5 melanoma)
4.43 µM: TGI (TK-10 renal)
6.98 µM: TGI (HCT-15 colon)
5.04 µM: TGI (NCI/ADR-RES ovarian)
inactive: GI50 (EKVX NSCLC) 4.12 µM | GI50 (HCT-15 colon) 2.49 µM | GI50 (MCF7 breast) 1.25 µM | GI50 (NCI/ADR-RES ovarian) 2.03 µM | GI50 (SF-295 CNS) 2.34 µM | GI50 (SK-MEL-28 melanoma) 2.27 µM | GI50 (SK-MEL-5 melanoma) 2.84 µM | GI50 (SR leukemia) 1.08 µM | GI50 (TK-10 renal) 2.51 µM
3.26 µM: TGI (MCF7 breast)
5.55 µM: TGI (SF-295 CNS)
4.76 µM: TGI (SR leukemia)
5.02 µM: TGI (SK-MEL-28 melanoma)
27.2 µM: TGI (EKVX NSCLC)

O=C(c1ccncc1)n1nc(-c2ccccc2)c(N=Nc2ccccc2[N+](=O)[O-])c1-c1ccccc1
> 100 µM: TGI (COLO 205 colon) | TGI (EKVX NSCLC) | TGI (SF-295 CNS) | TGI (SK-MEL-28 melanoma) | TGI (SK-MEL-5 melanoma) | TGI (SR leukemia) | TGI (TK-10 renal)

CCC1=C(C(C)=O)[C@@H]2CCCCC[C@@H](C(=O)OC)C2C1=O (some centres undefined)
> 100 µM: TGI (COLO 205 colon) | TGI (EKVX NSCLC) | TGI (HCT-15 colon) | TGI (SF-295 CNS) | TGI (SK-MEL-28 melanoma) | TGI (SK-MEL-5 melanoma) | TGI (SR leukemia) | TGI (TK-10 renal)

CN(C)/N=C(/c1nc2ccc(Cl)cc2[nH]c1=O)C(O)c1ccc(C(O)/C(=N\N(C)C)c2nc3ccc(Cl)cc3[nH]c2=O)cc1 (centres undefined)
> 100 µM: TGI (COLO 205 colon) | TGI (EKVX NSCLC) | TGI (SF-295 CNS) | TGI (SK-MEL-28 melanoma) | TGI (SK-MEL-5 melanoma) | TGI (SR leukemia) | TGI (TK-10 renal)

O=S(=O)(O)c1ccc(N=Nc2ccc(N=Nc3ccc(/C=C/c4ccc(N=[N+]([O-])c5ccc(/C=C/c6ccc(N=Nc7ccc(N=Nc8ccc(S(=O)(=O)O)cc8)cc7)cc6S(=O)(=O)O)c(S(=O)(=O)O)c5)cc4S(=O)(=O)O)c(S(=O)(=O)O)c3)cc2)cc1
> 100 µM: TGI (COLO 205 colon) | TGI (EKVX NSCLC) | TGI (HCT-15 colon) | TGI (MCF7 breast) | TGI (NCI/ADR-RES ovarian) | TGI (SF-295 CNS) | TGI (SK-MEL-28 melanoma) | TGI (SK-MEL-5 melanoma)

c1ccc2c(c1)Sc1nccc3ccnc-2c13
> 100 µM: TGI (COLO 205 colon) | TGI (EKVX NSCLC) | TGI (MCF7 breast) | TGI (NCI/ADR-RES ovarian) | TGI (SF-295 CNS) | TGI (SK-MEL-28 melanoma) | TGI (SK-MEL-5 melanoma) | TGI (SR leukemia) | TGI (TK-10 renal)

OCCOCn1nncc1Cn1ncc2c(SCc3ccccc3)ncnc21
> 100 µM: TGI (COLO 205 colon) | TGI (EKVX NSCLC) | TGI (HCT-15 colon) | TGI (MCF7 breast) | TGI (NCI/ADR-RES ovarian) | TGI (SF-295 CNS) | TGI (SK-MEL-28 melanoma) | TGI (SK-MEL-5 melanoma) | TGI (TK-10 renal)

N#C/C(C(=O)Nc1ccc(Cl)cc1)=C(/N)N1CCCC1
> 100 µM: TGI (COLO 205 colon) | TGI (EKVX NSCLC) | TGI (HCT-15 colon) | TGI (MCF7 breast) | TGI (NCI/ADR-RES ovarian) | TGI (SF-295 CNS) | TGI (SK-MEL-28 melanoma) | TGI (SK-MEL-5 melanoma) | TGI (SR leukemia)

c1cncc(CC2(c3cc4ccccc4[nH]3)OCCO2)c1
> 100 µM: TGI (COLO 205 colon) | TGI (HCT-15 colon) | TGI (MCF7 breast) | TGI (NCI/ADR-RES ovarian) | TGI (SF-295 CNS) | TGI (SK-MEL-28 melanoma) | TGI (SK-MEL-5 melanoma) | TGI (SR leukemia) | TGI (TK-10 renal)

O=c1c(Cc2ccc(Cl)cc2)nnc2sc(-c3ccc(-c4ccc(F)c(Cl)c4)o3)nn12
> 100 µM: TGI (COLO 205 colon) | TGI (EKVX NSCLC) | TGI (HCT-15 colon) | TGI (MCF7 breast) | TGI (NCI/ADR-RES ovarian) | TGI (SF-295 CNS) | TGI (SK-MEL-28 melanoma) | TGI (SK-MEL-5 melanoma) | TGI (TK-10 renal)

O=P(O)(O)c1ccccc1Oc1ccccc1
> 100 µM: TGI (COLO 205 colon) | TGI (EKVX NSCLC) | TGI (HCT-15 colon) | TGI (MCF7 breast) | TGI (NCI/ADR-RES ovarian) | TGI (SF-295 CNS) | TGI (SK-MEL-28 melanoma) | TGI (SK-MEL-5 melanoma) | TGI (TK-10 renal)

CCOC(=O)c1s/c(=N\Nc2nc3ccccc3cc2C2OCCO2)n(Cc2ccccc2)c1C
> 100 µM: TGI (COLO 205 colon) | TGI (EKVX NSCLC) | TGI (HCT-15 colon) | TGI (SF-295 CNS) | TGI (SK-MEL-28 melanoma) | TGI (SK-MEL-5 melanoma) | TGI (SR leukemia) | TGI (TK-10 renal)

CCP(=O)(OC)C1=CCN(C(=O)OCC[Si](C)(C)C)CC1 (centres undefined)
> 100 µM: TGI (COLO 205 colon) | TGI (EKVX NSCLC) | TGI (HCT-15 colon) | TGI (MCF7 breast) | TGI (NCI/ADR-RES ovarian) | TGI (SF-295 CNS) | TGI (SK-MEL-28 melanoma) | TGI (SK-MEL-5 melanoma) | TGI (TK-10 renal)

Cc1cc2ncn(C3CCCCO3)c2cc1C (centres undefined)
> 100 µM: TGI (COLO 205 colon) | TGI (EKVX NSCLC) | TGI (HCT-15 colon) | TGI (MCF7 breast) | TGI (NCI/ADR-RES ovarian) | TGI (SF-295 CNS) | TGI (SK-MEL-28 melanoma) | TGI (SK-MEL-5 melanoma) | TGI (TK-10 renal)

COC(=O)C1CCc2sc3ncnc(Nc4cn[nH]c4C(=O)Nc4ccc(CN5CCN(C)CC5)cc4)c3c21 (centres undefined)
> 100 µM: TGI (HCT-15 colon) | TGI (NCI/ADR-RES ovarian)
inactive: GI50 (EKVX NSCLC) 0.838 µM | GI50 (NCI/ADR-RES ovarian) 3.27 µM | GI50 (SF-295 CNS) 0.659 µM | GI50 (SK-MEL-5 melanoma) 0.58 µM | GI50 (TK-10 renal) 2.31 µM
active: GI50 (HCT-15 colon) 0.423 µM | GI50 (SR leukemia) 0.285 µM
14 µM: TGI (EKVX NSCLC)
2.56 µM: TGI (SK-MEL-5 melanoma)
0.815 µM: TGI (SR leukemia)
17.8 µM: TGI (TK-10 renal)
17.1 µM: TGI (SF-295 CNS)

O=C1N=C2SC(=S)NC(=S)N2NC12c1ccccc1-c1ccccc12
> 10 µM: TGI (COLO 205 colon) | TGI (EKVX NSCLC) | TGI (HCT-15 colon) | TGI (MCF7 breast) | TGI (NCI/ADR-RES ovarian) | TGI (SK-MEL-5 melanoma) | TGI (SR leukemia) | TGI (TK-10 renal)

C1=C2C3=[N+](CCCCC3)CC2Cc2ccsc21 (centres undefined)
> 100 µM: TGI (COLO 205 colon) | TGI (EKVX NSCLC) | TGI (HCT-15 colon) | TGI (MCF7 breast) | TGI (NCI/ADR-RES ovarian) | TGI (SF-295 CNS) | TGI (SK-MEL-28 melanoma) | TGI (SK-MEL-5 melanoma) | TGI (TK-10 renal)

COC(=O)C1C(C(=O)OC)C2(OC(c3ccc(Cl)cc3)=CC2=O)C12OC(c1ccc(Cl)cc1)=CC2=O (centres undefined)
10.9 µM: TGI (SR leukemia)
64.3 µM: TGI (SF-295 CNS)
37.9 µM: TGI (SK-MEL-5 melanoma)
54.9 µM: TGI (EKVX NSCLC)
64.6 µM: TGI (MCF7 breast)
> 100 µM: TGI (SK-MEL-28 melanoma)
48.5 µM: TGI (TK-10 renal)
35.2 µM: TGI (HCT-15 colon)
34.6 µM: TGI (COLO 205 colon)
